Tests used:
UO-31 = assay: NCI-60 screening, Renal Cancer; type: cell-based, human
ACHN = assay: NCI-60 screening, Renal Cancer; type: cell-based, human
NCI-H522 = assay: NCI-60 screening, Non-Small Cell Lung Cancer; type: cell-based, human
HS 578T = assay: NCI-60 screening, Breast Cancer; type: cell-based, human
UACC-62 = assay: NCI-60 screening, Melanoma; type: cell-based, human
NCI-H332M = assay: NCI-60 screening, Non-Small Cell Lung Cancer; type: cell-based, human
[1] = test system: various cancer cells lines; assay: Cytotoxicity assays in various cancer cell lines; type: cell-based
MALME-3M = assay: NCI-60 screening, Melanoma; type: cell-based, human
[2] = test system: MDA-MB-231 (TNBC) Xenograft; assay: Tumor xenograft study, MDA-MB-231; type: in vivo, mice
Procedure: Uniform suspensions of human breast cancer MDA-MB-231 and human ovarian cancer IGROV1 cells (2×10^6) in 100 μL (0.02 carboxymethyl cellulose in phosphate buffered saline) were injected subcutaneously into the right and left flanks of 4- to 5-week-old female athymic nude mice (Charles River Laboratories). After 10 days, when the tumor […] reaches 100 mm^3, the mice were randomly allocated to 3 groups of each containing 6 animals. […] All drug was suspended in PBS followed by sonication (15 seconds with an intermittent interval of 5 seconds) for 1 minute. Tumors were allowed to reach palpability before drug intervention. Tumor size was measured every 3 days using digital Vernier Calipers and tumor volume was calculated using the ellipsoid formula [D×(d2)]/2, where D is the large diameter of the tumor and d represents the small diameter. On day 31, the mice were euthanized and tumors were harvested for protein and gene expression studies. […] FIG. 6B depicts a graph of tumor volume vs. time for the administration of EC300 at 2.5 mg/kg twice weekly in the MDA-MB-231 (TNBC) Xenograft. […] FIG. 7 depicts a graph of tumor volume vs. time for the administration of EC300 at 5 mg/kg 5 days per week in the IGROV1 (Ovarian) Xenograft. […] STAT3 phosphorylation is reduced in tumors that underwent treatment compared to control which is an indication of LIF downstream target.

MDA-MB-231 ATCC = assay: NCI-60 screening, Breast Cancer; type: cell-based, human
CAKI-1 = assay: NCI-60 screening, Renal Cancer; type: cell-based, human
M14 = assay: NCI-60 screening, Melanoma; type: cell-based, human
OVCAR-3 = assay: NCI-60 screening, Ovarian Cancer; type: cell-based, human
Procedure: EC 330 was also tested using the NCI-60 Screening Methodology. The human tumor cell lines of the cancer screening panel are grown in RPMI 1640 medium containing 5% fetal bovine serum and 2 mM L-glutamine. For a typical screening experiment, cells are inoculated into 96 well microtiter plates in 100 μL at plating densities ranging from 5,000 to 40,000 cells/well depending on the doubling time of individual cell lines. After cell inoculation, the microtiter plates are incubated at 37° C., 5% CO2, 95% air and 100% relative humidity for 24 h prior to addition of experimental drugs. […]
Following drug addition, the plates are incubated for an additional 48 h at 37° C., 5% CO2, 95% air, and 100% relative humidity. […] Bound stain is subsequently solubilized with 10 mM trizma base, and the absorbance is read on an automated plate reader at a wavelength of 515 nm. […] Using the seven absorbance measurements [time zero, (Tz), control growth, (C), and test growth in the presence of drug at the five concentration levels (Ti)], the percentage growth is calculated at each of the drug concentrations levels. Percentage growth inhibition is calculated as: […]
Three dose response parameters are calculated for each experimental agent. […] The drug concentration resulting in total growth inhibition (TGI) is calculated from Ti=Tz. […]

SNB-19 = assay: NCI-60 screening, CNS Cancer; type: cell-based, human
SK-OV-3 = assay: NCI-60 screening, Ovarian Cancer; type: cell-based, human
SF-268 = assay: NCI-60 screening, CNS Cancer; type: cell-based, human
SK-MEL-5 = assay: NCI-60 screening, Melanoma; type: cell-based, human
K-562 = assay: NCI-60 screening, Leukemia; type: cell-based, human

C#CC(F)(F)[C@]1(O)CCC2C3CCC4=CC(=O)CCC4=C3C(c3ccc(C4CC4)cc3)C[C@@]21C (stereo partly drawn) [EC330, 17α-(1,1-difluoro-2-propyn-1-yl)-17β-hydroxy-11β-[4-p-(cyclopropyl)phenyl]estra-4,9-dien-3-one] was tested, and the “TGI (log10TGI)” value (UO-31) was under −8.00, the “TGI (log10TGI)” value (ACHN) was −5.09 and the “TGI (log10TGI)” value (NCI-H522) was under −8.00. For the same compound, the “TGI (log10TGI)” value (HS 578T) was −4.99, the “TGI (log10TGI)” value (UACC-62) was −5.27 and the “TGI (log10TGI)” value (NCI-H332M) was over −4.00. The “cytotoxicity (IC50's) in cytotoxicity assays” value [1] was “low nanomolar”, the “TGI (log10TGI)” value (MALME-3M) was under −8.00 and the “apoptosis in xenograft tumors” value ([2]; MDA-MB-231 breast cancer xenograft tumors) was “induced apoptosis dose dependently”. The tumor growth ([2]; human triple negative breast cancer (TNBC) model) was “significantly reduced”, the “TGI (log10TGI)” value (MDA-MB-231 ATCC) was −5.46 and the “TGI (log10TGI)” value (CAKI-1) was −6.41. The “TGI (log10TGI)” value (M14) was −4.45, the “TGI (log10TGI)” value (OVCAR-3) was −6.85 and the “TGI (log10TGI)” value (SNB-19) was over −4.00. The “TGI (log10TGI)” value (SK-OV-3) was −6.55, the “TGI (log10TGI)” value (SF-268) was −6.43 and the “TGI (log10TGI)” value (SK-MEL-5) was −4.79. For the same compound, the “TGI (log10TGI)” value (K-562) was over −4.00.

From US20200087340A1, “LIF/LIFR ANTAGONIST IN ONCOLOGY AND NONMALIGNANT DISEASES” (Evestra, Inc., priority 2018, published 2020)
